This passage reports Ki and IC90 results from patent US5543517A, “Substituted bicyclic phosphoramides and derivatives thereof” (The DuPont Merck Pharmaceutical Company, priority 1994, dated 1996).

≈ marks a conversion by molar mass, not a printed value. Read-outs that look alike come from different tables or passages of the source.

Assay [1] deals with T1, HIV-1 protease (HIV-1 M:B_HXB2R, UniProt P04585).
T1 construct: cut from Gag-Pol polyprotein
As to the kind of experiment: HIV protease inhibition assay (HPLC method). The class given is biochemical. The following applies: pH 5.5, 30° C., 1 hr. On the procedure:
The Ki values in TABLE 1 were determined using the assay conditions described below under HIV Protease Inhibition Assay (HPLC Method). The Ki values are indicated as follows: +++=<10 nM; ++=10 nM to 1 μM; +=>[…].
HIV PROTEASE INHIBITION ASSAY (HPLC METHOD)
Protease: Inclusion bodies of E. coli harboring plasmid T1718R with a synthetic gene coding for a single-chain tethered dimer of HIV protease were prepared as described in Cheng et al. Proc. Natl. Acad. Sci. USA 1990, 87, 9660. Active protease was prepared as described therein by extraction with 67% acetic acid, dilution 33-fold with water, dialysis against water and then against a "refolding buffer" comprising 20 mM MES, 1 mM dithiothreitol and 10% glycerol, pH 5.5. Protease was stored as a stock preparation at 10 uM in refolding buffer.
Substrate: Peptide of the sequence aminobenzoyl-Ala-Thr-His-Gln-Val-Tyr-Phe(NO2)-Val-Arg-Lys-Ala containing p-nitrophenylalanine (Phe(NO2)), was prepared by solid phase synthesis as previously described (Cheng et al. Proc. Natl. Acad. Sci. USA 1990, 87, 9660). Stock solutions of 2 mM substrate were prepared in DMSO.
Inhibitory compounds were dissolved in sufficient DMSO to make 3 mM stock solutions. All further dilutions were prepared in "assay buffer" comprising 1M NaCl, 50 mM MES, pH 5.5, 1 mM EDTA, 1 mM DTT and 20% glycerol.
Enzyme reaction: To a 2 mL screw-cap centrifuge tube were added 50 uL protease (final concentration 0.25 nM) and 0.1 mL inhibitor compound (final concentration 0.1-12,500 nM). After 15 min preincubation at room temperature, the reaction was started by the addition of 0.05 mL substrate (final concentration 5 uM). Incubation was carried out at 30° C. for 1 hr. The reaction was stopped by addition of 1 mL of 0.1M ammonium hydroxide solution.
HPLC measurement of product formation: The product (aminobenzoyl-Ala-Thr-His-Gln-Val-Tyr) was separated from substrate on a Pharmacia MonoQ anion exchange column. The injection volume was 0.2 mL. The mobile phases comprised: solution A (20 mM tris HCl, pH 9.0, 0.02% sodium azide, 10% acetonitrile), and solution B (20 mM tris HCl, pH 9.0, 0.02% sodium azide, 0.5M ammonium formate, 10% acetonitrile). The mobile phases were pumped at 1 mL/min, with a gradient from 0 to 30% B in 5 min, 100% B for 4 min to wash the column, and a re-equilibration wash with A for 4 min. The retention time of the product was 3.6 min. Detection with a Shimadzu model RF535 fluorescence monitor was at 330 nm (excitation) and 430 nm (emission). The Ki was calculated from the formula Ki=I/(((Km+S-FA*S)/(FA*Km))-1) where I=inhibitor concentration, S=substrate concentration, FA=fractional activity=cm peak height with inhibitor/cm peak height without inhibitor and Km=Michaelis constant=20 uM.

Assay [2] relates to HIV-1 (RF). As to the kind of experiment: HIV RNA assay (microplate based compound evaluation in HIV-1 infected MT-2 cells). The class given is cell-based. Here is the method: DNA Plasmids and In Vitro RNA Transcripts
Plasmid pDAB 72 containing both gag and pol sequences of BH10 (bp 113-1816) cloned into PTZ 19R was prepared according to Erickson-Viitanen et al. AIDS Research and Human Retroviruses 1989, 5, 577. The plasmid was linearized with Bam HI prior to the generation of in vitro RNA transcripts using the Riboprobe Gemini system II kit (Promega) with T7 RNA polymerase. Synthesized RNA was purified by treatment with RNase free DNAse (Promega), phenol-chloroform extraction, and ethanol precipitation. RNA transcripts were dissolved in water, and stored at -70° C. The concentration of RNA was determined from the A260.
Biotinylated capture probes were purified by HPLC after synthesis on an Applied Biosystems (Foster City, Calif.) DNA synthesizer by addition of biotin to the 5' terminal end of the oligonucleotide, using the biotinphosphoramidite reagent of Cocuzza, Tet. Lett. 1989, 30, 6287. The gag biotinylated capture probe (5-biotin-[…] 3') was complementary to nucleotides 889-912 of HXB2 and the pol biotinylated capture probe (5'-biotin --[…] 3') was complementary to nucleotides 2374-2395 of HXB2. Alkaline phosphatase conjugated oligonucleotides used as reporter probes were prepared by Syngene (San Diego, Calif.). The pol reporter probe (5' […] 3') was complementary to nucleotides 2403-2425 of HXB2. The gag reporter probe (5' […] 3') was complementary to nucleotides 950-973 of HXB2. All nucleotide positions are those of the GenBank Genetic Sequence Data Bank as accessed through the Genetics Computer Group Sequence Analysis Software Package (Devereau Nucleic Acids Research 1984, 12, 387). The reporter probes were prepared as 0.5 μM stocks in 2×SSC(0.3M NaCl, 0.03M sodium citrate), 0.05M Tris pH 8.8, 1 mg/mL BSA. The biotinylated capture probes were prepared as 100 μM stocks in water.
Streptavidin Coated Plates
Nunc-immunomodule microtiter plate strips were coated by addition of 200 μL of streptavidin (30 μg/mL, Scripps, La Jolla, Calif.) in freshly prepared 10 mM sodium carbonate (pH 9.6). Plates were incubated overnight at 4° C. Streptavidin solution was aspirated from the wells and a blocking buffer composed of phosphate buffered saline (PBS), 20 mg/mL bovine serum albumin (crystalline, nuclease and protease free, Calbiochem) and 100 mg/mL lactose (Sigma) was added to the plates for 3 hrs at room temperature. Blocking buffer was removed from the wells, which were allowed to dry overnight at room temperature and subsequently stored at 4° C. in zip lock bags with desiccant. For the majority of the compound evaluation experiments, streptavidin coated plates were obtained from Du Pont Biotechnology Systems (Boston, Mass.).
MT-2, CEM, and H9 cells were maintained in RPMI 1640 supplemented with 5% fetal calf serum (FCS), 2 mM L-glutamine and 50 μg/mL gentamycin, all from Gibco. Laboratory strains of HIV-1 (RF, MN and IIIB) were propagated in H9 cells in the same medium. Virus stocks were prepared approximately 1 month after acute infection of H9 cells by clarification of the tissue culture medium and storage of aliquots at -70° C. Infectious titers of HIV-1 (RF) stocks were 1-3×10^7 PFU (plaque forming units)/mL as measured by plaque assay on MT-2 cells (see below). Each aliquot of virus stock used for infection was thawed only once. In some cases, infected H9 cells were shifted to Dulbecco's modified Eagle's medium 3-10 days before collection of virus in order to generate virus stocks in medium with low biotin content. Clinical isolates of HIV that had been passaged once in MT-2 cells were used to infect fresh MT-2 cells in RPMI medium. Three days after infection, cells were pelleted, resuspended and culture continued in Dulbecco's modified Eagle's medium as above. Virus stocks of clinical isolates were prepared 10-15 days after infection when cytopathic effects were apparent in the culture. […]

[3] abbreviates: Human immunodeficiency virus 1, MT2, 72 h, HIV RNA assay, HIV-1 (RF) infected MT-2 cells, 3 days, 37° C., read-out: IC90.

For the molecule `O=P12O[C@H]([C@@H](O)[C@@H](Cc3ccccc3)N1CC1CC1)[C@@H](Cc1ccccc1)N2CC1CC1` [Example 1F, (3-endo,4-endo,6-exo)-2,7-Bis(cyclopropylmethyl)-3,6-bis(phenylmethyl)-8-oxa-2,7-diaza-1-phosphabicyclo [3.2.1]octan-4-ol 1-oxide], the inhibition constant (Ki) in assay [1] was 0.01 to 1 µM. Also, in assay [2] (setting [3]), the IC90 is 10 to 100 µg/mL (≈ 22.1 to 221 µM).

With `O=P12O[C@H]([C@@H](O)[C@@H](Cc3ccccc3)N1Cc1ccc3ccccc3c1)[C@@H](Cc1ccccc1)N2Cc1ccc2ccccc2c1` [Example 2C, (3-endo,4-endo,6-exo)-2,7-Bis(2-naphthalenylmethyl)-3,6-bis(phenylmethyl)-8-oxa-2,7-diaza-1-phosphabicyclo[3.2.1]octan-4-ol 1-oxide], in assay [1], the inhibitory constant (Ki) lay within 0.01 to 1 µM. In assay [2] (setting [3]), the IC90 is over 50 µg/mL. Molecule `CCCCN1[C@H](Cc2ccccc2)[C@H](O)[C@H]2OP1(=O)N(CCCC)[C@@H]2Cc1ccccc1` [Example 3C, (3-endo,4-endo,6-exo)-2,7-Bis(butyl)-3,6-bis(phenylmethyl)-8-oxa-2,7-diaza-1-phosphabicyclo[3.2.1]octan-4-ol 1-oxide] displayed a Ki in assay [1] of 0.01 to 1 µM. For the same molecule, the IC90 in assay [2] (setting [3]) was over 50 µg/mL. `O=P12O[C@H]([C@@H](O)[C@@H](Cc3ccccc3)N1Cc1ccccc1)[C@@H](Cc1ccccc1)N2Cc1ccccc1` [Example 4E, (3-endo,4-endo,6-exo)-2,3,6,7-tetrakis (phenylmethyl)-8-oxa-2,7-diaza-1-phosphabicyclo[3.2.1]octan-4-ol 1-oxide] showed a Ki in assay [1] of 0.01 to 1 µM. In addition, in assay [2] (setting [3]), the IC90 was in the range of 10 to 100 µg/mL (≈ 19.1 to 191 µM). Take `CNc1cccc(CN2[C@H](Cc3ccccc3)[C@H](O)[C@H]3OP2(=O)N(Cc2cccc(NC)c2)[C@@H]3Cc2ccccc2)c1` [Example 6D]: the Ki in assay [1] lay in the range of 0.01 to 1 µM. Besides, the IC90 in assay [2] (setting [3]) is under 10 µg/mL. Molecule `O=P12O[C@H]([C@@H](O)[C@@H](Cc3ccccc3)N1Cc1ccc(O)cc1)[C@@H](Cc1ccccc1)N2Cc1ccc(O)cc1` [Example 7D, (3-endo,4-endo,6-exo)-2,7-bis(4-hydroxyphenylmethyl)-3,6-bis(phenylmethyl)-8-oxa-2,7-diaza-1-phosphabicyclo[3.2.1]octan-4-ol 1-oxide] displayed a Ki in assay [1] of under 0.01 µM. The IC90 in assay [2] (setting [3]) was under 10 µg/mL. As to `O=P12O[C@H]([C@@H](O)[C@@H](Cc3ccccc3)N1Cc1cccc(CO)c1)[C@@H](Cc1ccccc1)N2Cc1cccc(CO)c1` [Example 8C, (3-endo,4-endo,6-exo)-2,7-Bis(3-(hydroxymethyl)phenylmethyl)-3,6-bis(phenylmethyl)-8-oxa-2,7-diaza-1-phosphabicyclo[3.2.1]octan-4-ol 1-oxide], the Ki in assay [1] was under 0.01 µM. Moreover, the IC90 in assay [2] (setting [3]) is under 10 µg/mL. Take `Nc1ccn([C@H]2CC[C@@H](CO)O2)c(=O)n1` [ddC, dideoxycytidine, reference compound]: the IC90 in assay [2] (Human immunodeficiency virus 1, MT2, HIV-1 (RF), MT-2 cells, virus dilution selected to give this value, read-out: IC90 value (concentration of compound required to reduce the HIV RNA level by 90%)) came out at 0.2 µg/mL (≈ 0.947 µM).

As usually defined, the Ki is a measure of affinity in units of concentration, obtained from inhibition or displacement.
